The text below walks through data of ChEMBL document CHEMBL5465560, “Selectivity Literature for EUbOPEN Chemogenomic Library” (2024).

For assay [1], the target named is Cyclin-dependent kinase 17 (Homo sapiens) (UniProt Q00537). The settings on record: at 10 µM.
Assay [2] addresses T1, Serine/threonine-protein kinase LATS2 (Homo sapiens) (UniProt Q9NRM7).
T1 sequence (whole entry): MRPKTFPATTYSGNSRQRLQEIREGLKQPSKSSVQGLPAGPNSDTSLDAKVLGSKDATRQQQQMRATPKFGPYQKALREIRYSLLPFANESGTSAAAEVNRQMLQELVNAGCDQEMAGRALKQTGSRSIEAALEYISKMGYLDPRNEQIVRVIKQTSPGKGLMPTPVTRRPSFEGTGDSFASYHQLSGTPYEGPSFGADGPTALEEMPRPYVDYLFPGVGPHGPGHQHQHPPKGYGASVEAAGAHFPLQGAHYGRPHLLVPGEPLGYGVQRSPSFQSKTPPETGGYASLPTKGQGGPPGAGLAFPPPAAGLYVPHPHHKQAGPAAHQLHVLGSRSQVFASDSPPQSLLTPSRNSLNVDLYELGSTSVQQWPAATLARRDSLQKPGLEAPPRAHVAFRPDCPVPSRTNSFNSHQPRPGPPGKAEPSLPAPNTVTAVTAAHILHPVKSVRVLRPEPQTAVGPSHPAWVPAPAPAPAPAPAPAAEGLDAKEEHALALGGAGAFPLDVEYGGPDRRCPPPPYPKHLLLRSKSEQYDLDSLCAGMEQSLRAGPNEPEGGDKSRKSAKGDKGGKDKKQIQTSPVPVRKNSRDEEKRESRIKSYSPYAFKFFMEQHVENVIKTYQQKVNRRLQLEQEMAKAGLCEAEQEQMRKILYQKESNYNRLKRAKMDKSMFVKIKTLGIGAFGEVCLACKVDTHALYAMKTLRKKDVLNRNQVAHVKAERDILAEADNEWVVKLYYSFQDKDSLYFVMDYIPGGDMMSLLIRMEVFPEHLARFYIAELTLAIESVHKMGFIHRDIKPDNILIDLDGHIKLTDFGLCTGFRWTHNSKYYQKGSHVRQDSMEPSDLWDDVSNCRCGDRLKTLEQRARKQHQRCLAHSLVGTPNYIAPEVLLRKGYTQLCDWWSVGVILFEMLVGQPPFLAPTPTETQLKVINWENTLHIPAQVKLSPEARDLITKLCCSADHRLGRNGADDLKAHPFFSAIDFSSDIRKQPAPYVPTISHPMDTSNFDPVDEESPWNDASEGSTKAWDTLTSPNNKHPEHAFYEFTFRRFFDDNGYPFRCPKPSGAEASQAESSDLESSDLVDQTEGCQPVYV
The settings on record: at 10 µM.

Assay [3] deals with T2, MAP/microtubule affinity-regulating kinase 4 (Homo sapiens) (UniProt Q96L34).
T2 sequence (whole entry): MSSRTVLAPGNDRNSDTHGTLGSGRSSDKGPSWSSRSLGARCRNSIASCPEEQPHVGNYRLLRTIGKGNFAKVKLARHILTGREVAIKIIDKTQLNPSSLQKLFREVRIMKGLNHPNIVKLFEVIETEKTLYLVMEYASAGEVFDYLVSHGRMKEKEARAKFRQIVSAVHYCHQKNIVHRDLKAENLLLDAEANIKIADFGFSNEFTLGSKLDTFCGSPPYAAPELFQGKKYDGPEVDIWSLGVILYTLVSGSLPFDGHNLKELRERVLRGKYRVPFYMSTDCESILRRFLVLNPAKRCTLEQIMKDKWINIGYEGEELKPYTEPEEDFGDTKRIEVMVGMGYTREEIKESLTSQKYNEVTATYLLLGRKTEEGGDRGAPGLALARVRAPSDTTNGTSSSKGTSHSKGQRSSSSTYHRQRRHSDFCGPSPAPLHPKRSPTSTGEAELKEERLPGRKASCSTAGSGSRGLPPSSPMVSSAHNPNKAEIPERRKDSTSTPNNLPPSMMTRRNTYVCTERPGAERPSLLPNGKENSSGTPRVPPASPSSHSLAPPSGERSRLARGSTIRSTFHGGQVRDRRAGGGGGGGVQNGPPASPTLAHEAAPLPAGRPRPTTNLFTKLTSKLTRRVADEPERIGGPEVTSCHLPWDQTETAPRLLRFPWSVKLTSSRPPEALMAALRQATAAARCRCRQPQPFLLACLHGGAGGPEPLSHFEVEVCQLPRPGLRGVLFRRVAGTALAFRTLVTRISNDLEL
In words: Selectivity interaction (ActivX KiNativ screen (kinase selectivity in THP-1 cell lysates)) EUB0000639a MARK4. Type of assay: subcellular. The settings on record: lysate, at 0.01 µM.

The nature of assay [4]: Selectivity interaction (KinomeScan (DiscoverX)) EUB0000045b PKNB.
Assay [5] has as its target T3, cAMP-dependent protein kinase catalytic subunit PRKX (Homo sapiens) (UniProt P51817).
T3 sequence (whole entry): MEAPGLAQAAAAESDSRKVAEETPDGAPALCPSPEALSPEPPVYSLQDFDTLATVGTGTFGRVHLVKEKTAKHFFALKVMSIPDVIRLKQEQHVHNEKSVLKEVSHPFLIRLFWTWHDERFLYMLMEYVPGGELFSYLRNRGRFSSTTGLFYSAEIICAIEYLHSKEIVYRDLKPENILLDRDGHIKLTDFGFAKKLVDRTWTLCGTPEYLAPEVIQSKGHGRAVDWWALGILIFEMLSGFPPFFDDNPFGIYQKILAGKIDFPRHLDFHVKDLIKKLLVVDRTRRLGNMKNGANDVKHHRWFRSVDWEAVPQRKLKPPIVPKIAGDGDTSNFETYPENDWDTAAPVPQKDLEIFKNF
Briefly: Selectivity interaction (KinomeScan (DiscoverX)) EUB0001049a PRKX. The settings on record: at 1 µM.

Chain of Cyclin-dependent kinase 17 (Homo sapiens) (Q00537 whole entry, looked up): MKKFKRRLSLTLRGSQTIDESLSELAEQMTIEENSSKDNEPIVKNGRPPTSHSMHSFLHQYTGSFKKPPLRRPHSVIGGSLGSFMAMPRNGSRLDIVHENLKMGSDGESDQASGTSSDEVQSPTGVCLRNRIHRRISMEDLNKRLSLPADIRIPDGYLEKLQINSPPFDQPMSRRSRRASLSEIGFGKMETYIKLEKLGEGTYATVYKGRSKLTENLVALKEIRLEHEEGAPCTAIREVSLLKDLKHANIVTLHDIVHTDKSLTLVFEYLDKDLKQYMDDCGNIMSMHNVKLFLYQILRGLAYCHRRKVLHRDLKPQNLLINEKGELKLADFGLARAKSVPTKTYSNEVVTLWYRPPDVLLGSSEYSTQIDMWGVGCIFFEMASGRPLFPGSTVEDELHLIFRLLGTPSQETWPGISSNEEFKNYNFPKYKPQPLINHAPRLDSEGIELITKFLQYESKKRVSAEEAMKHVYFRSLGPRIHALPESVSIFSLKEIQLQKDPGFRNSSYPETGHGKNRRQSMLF

As for `CCN(CC)CCCCNc1ncc2cc(-c3cc(OC)cc(OC)c3)c(NC(=O)NC(C)(C)C)nc2n1`, the % of control in assay [1] and in assay [2] was 100% each time.

In assay [3], `CC[C@@H]1[C@H](F)C(=O)N[C@@H]1COc1nccc2cc(C(N)=O)c(OC)cc12` [ZIMLOVISERTIB] had a % of inhibition of 9.6%.

For the compound `C=CC(=O)Nc1cc(-n2c(=O)ccc3cnc4ccc(-c5ccc(NS(C)(=O)=O)cc5)cc4c32)ccc1C`, the figures for the % of control in assay [4] (at 1 µM) and in assay [4] (at 10 µM) were 41% and 90%, respectively.

In the case of `COc1cc(Nc2nc(C)cc(-c3cnn4nc(OC)ccc34)n2)cc(C(F)(F)F)c1`, the % of control in assay [5] is 87%.
